# Results from patent US20040063662A1, “Selenophene anti-tumor agents” (priority 1996, published 2004).
# Tests used:
# [1] = system: UO-31; test: NCI human tumor cell panel: UO-31 (Renal Cancer); type: cell-based; conditions: UO-31, Renal Cancer
# [2] = system: OVCAR-8; test: NCI human tumor cell panel: OVCAR-8 (Ovarian Cancer); type: cell-based; conditions: OVCAR-8, Ovarian Cancer; for GI50: read-out: Log10 GI50 (converted); for IC (TGI): read-out: Log10 TGI (converted)
# [3] = system: NCI-H322M; test: cells; type: cell-based; conditions: Homo sapiens, Non-Small Cell Lung Cancer; for GI50: read-out: Log10 GI50 (converted); for IC (TGI): read-out: Log10 TGI (converted)
# [4] = system: IGROV1; test: NCI human tumor cell panel: IGROV1 (Ovarian Cancer); type: cell-based; conditions: IGROV-1, IGROV1, Ovarian Cancer; for GI50: read-out: Log10 GI50 (converted); for IC (TGI): read-out: Log10 TGI (converted)
# [5] = system: SF-295; test: NCI human tumor cell panel: SF-295 (CNS Cancer); type: cell-based; conditions: SF-295, CNS Cancer; for GI50: read-out: Log10 GI50 (converted); for IC (TGI): read-out: Log10 TGI (converted)
# [6] = system: U251; test: NCI human tumor cell panel: U251 (CNS Cancer); type: cell-based; conditions: U-251, U251, CNS Cancer; for GI50: read-out: Log10 GI50 (converted); for IC (TGI): read-out: Log10 TGI (converted)
# [7] = system: HCT-116; test: NCI human tumor cell panel: HCT-116 (Colon Cancer); type: cell-based; conditions: HCT-116, Colon Cancer; for GI50: read-out: Log10 GI50 (converted); for IC (TGI): read-out: Log10 TGI (converted)
# [8] = system: LOX IMVI; test: NCI human tumor cell panel: LOX IMVI (Melanoma); type: cell-based; conditions: Melanoma; for GI50: read-out: Log10 GI50 (converted); for IC (TGI): read-out: Log10 TGI (converted)
# [9] = system: SF-539; test: NCI human tumor cell panel: SF-539 (CNS Cancer); type: cell-based; conditions: SF-539, CNS Cancer; for GI50: read-out: Log10 GI50 (converted); for IC (TGI): read-out: Log10 TGI (converted)
# [10] = system: MDA-N; test: NCI human tumor cell panel: MDA-N (Breast Cancer); type: cell-based; conditions: Breast Cancer; for GI50: read-out: Log10 GI50 (converted); for IC (TGI): read-out: Log10 TGI (converted)
# [11] = system: RPMI-8226; test: NCI human tumor cell panel: RPMI-8226 (Leukemia); type: cell-based; conditions: RPMI-8226, Leukemia; for GI50: read-out: Log10 GI50 (converted); for IC (TGI): read-out: Log10 TGI
# [12] = system: MOLT-4; test: NCI human tumor cell panel: MOLT-4 (Leukemia); type: cell-based; conditions: MOLT-4, Leukemia; for GI50: read-out: Log10 GI50 (converted); for IC (TGI): read-out: Log10 TGI (converted)
# [13] = system: SK-MEL-2; test: NCI human tumor cell panel: SK-MEL-2 (Melanoma); type: cell-based; conditions: SK-MEL-2, Melanoma; for GI50: read-out: Log10 GI50 (converted); for IC (TGI): read-out: Log10 TGI (converted)
# [14] = system: SNB-75; test: NCI human tumor cell panel: SNB-75 (CNS Cancer); type: cell-based; conditions: SNB-75, CNS Cancer; for GI50: read-out: Log10 GI50 (converted); for IC (TGI): read-out: Log10 TGI (converted)
# [15] = system: NCI-H522; test: NCI human tumor cell panel: NCI-H522 (Non-Small Cell Lung Cancer); conditions: for GI50: NCI-H522, read-out: Log10 GI50 (converted); for IC (TGI): NCI-H522, read-out: Log10 TGI
# [16] = system: NCI-H23; test: NCI human tumor cell panel: NCI-H23 (Non-Small Cell Lung Cancer); type: cell-based; conditions: NCI-H23, Non-Small Cell Lung Cancer; for GI50: read-out: Log10 GI50 (converted); for IC (TGI): read-out: Log10 TGI (converted)
# [17] = system: EKVX; test: NCI human tumor cell panel: EKVX (Non-Small Cell Lung Cancer); type: cell-based; conditions: Non-Small Cell Lung Cancer; for GI50: read-out: Log10 GI50 (converted); for IC (TGI): read-out: Log10 TGI (converted)
# [18] = system: OVCAR-3; test: NCI human tumor cell panel: OVCAR-3 (Ovarian Cancer); type: cell-based; conditions: OVCAR-3, Ovarian Cancer; for GI50: read-out: Log10 GI50 (converted); for IC (TGI): read-out: Log10 TGI (converted)
# [19] = system: BT-549; test: NCI human tumor cell panel: BT-549 (Breast Cancer); type: cell-based; conditions: BT-549, Breast Cancer; for GI50: read-out: Log10 GI50 (converted); for IC (TGI): read-out: Log10 TGI (converted)
# [20] = system: TK-10; test: NCI human tumor cell panel: TK-10 (Renal Cancer); type: cell-based; conditions: TK-10, Renal Cancer; for GI50: read-out: Log10 GI50 (converted); for IC (TGI): read-out: Log10 TGI (converted)
# [21] = system: 786-0; test: NCI human tumor cell panel: 786-0 (Renal Cancer); type: cell-based; conditions: 786-0, Renal Cancer; for GI50: read-out: Log10 GI50 (converted); for IC (TGI): read-out: Log10 TGI (converted)
# [22] = system: SK-MEL-28; test: NCI human tumor cell panel: SK-MEL-28 (Melanoma); type: cell-based; conditions: SK-MEL-28, Melanoma; for GI50: read-out: Log10 GI50 (converted); for IC (TGI): read-out: Log10 TGI (converted)
# [23] = system: M14; test: NCI human tumor cell panel: M14 (Melanoma); type: cell-based; conditions: M14, Melanoma; for GI50: read-out: Log10 GI50 (converted); for IC (TGI): read-out: Log10 TGI (converted)
# [24] = system: A549/ATCC; test: NCI human tumor cell panel: A549/ATCC (Non-Small Cell Lung Cancer); type: cell-based; conditions: Non-Small Cell Lung Cancer; for GI50: read-out: Log10 GI50 (converted); for IC (TGI): read-out: Log10 TGI (converted)
# [25] = system: SK-MEL-5; test: NCI human tumor cell panel: SK-MEL-5 (Melanoma); type: cell-based; conditions: SK-MEL-5, Melanoma; for GI50: read-out: Log10 GI50 (converted); for IC (TGI): read-out: Log10 TGI (converted)
# [26] = system: NCI-H460; test: NCI human tumor cell panel: NCI-H460 (Non-Small Cell Lung Cancer); type: cell-based; conditions: NCI-H460, Non-Small Cell Lung Cancer; for GI50: read-out: Log10 GI50 (converted); for IC (TGI): read-out: Log10 TGI (converted)
# [27] = system: MDA-MB-435; test: NCI human tumor cell panel: MDA-MB-435 (Breast Cancer); type: cell-based; conditions: MDA-MB-435, Breast Cancer; for GI50: read-out: Log10 GI50 (converted); for IC (TGI): read-out: Log10 TGI (converted)
# [28] = system: ACHN; test: NCI human tumor cell panel: ACHN (Renal Cancer); type: cell-based; conditions: Renal Cancer; for GI50: read-out: Log10 GI50 (converted); for IC (TGI): read-out: Log10 TGI (converted)
# [29] = system: HT29; test: NCI human tumor cell panel: HT29 (Colon Cancer); type: cell-based; conditions: HT-29, HT29, Colon Cancer; for GI50: read-out: Log10 GI50 (converted); for IC (TGI): read-out: Log10 TGI (converted)
# [30] = system: A498; test: NCI human tumor cell panel: A498 (Renal Cancer); type: cell-based; conditions: A498, Renal Cancer; for GI50: read-out: Log10 GI50 (converted); for IC (TGI): read-out: Log10 TGI (converted)
# [31] = system: MCF7/ADR-RES; test: NCI human tumor cell panel: MCF7/ADR-RES (Breast Cancer); type: cell-based; conditions: Breast Cancer
# [32] = system: SW-620; test: NCI human tumor cell panel: SW-620 (Colon Cancer); type: cell-based; conditions: SW-620, Colon Cancer
# [33] = read-out: Log10 GI50 (converted)
# [34] = read-out: Log10 TGI (converted)
structure (smiles),measurement,setting,value
O=Cc1ccc(-c2ccc(-c3ccc[se]3)[se]2)[se]1 [NSC 675244],GI50,[1]; [33],15.5 µM
same,IC (TGI),[1]; [34],28.8 µM
same,GI50,[2],9.12 µM
same,IC (TGI),[2],30.2 µM
same,GI50,[3],13.2 µM
same,IC (TGI),[3],28.2 µM
same,GI50,[4],3.31 µM
same,IC (TGI),[4],15.5 µM
same,GI50,[5],15.1 µM
same,IC (TGI),[5],28.2 µM
same,GI50,[6],316 nM
same,IC (TGI),[6],13.8 µM
same,GI50,[7],380 nM
same,IC (TGI),[7],13.8 µM
same,GI50,[8],5.62 µM
same,IC (TGI),[8],20.9 µM
same,GI50,[9],17 µM
same,IC (TGI),[9],33.1 µM
same,GI50,[10],4.57 µM
same,IC (TGI),[10],19.5 µM
same,GI50,[11],2950 nM
same,IC (TGI),[11],> 100 µM
same,GI50,[12],2400 nM
same,IC (TGI),[12],7.59 µM
same,GI50,[13],16.6 µM
same,IC (TGI),[13],45.7 µM
same,GI50,[14],2 µM
same,IC (TGI),[14],6.46 µM
same,GI50,[15],5.25 µM
same,IC (TGI),[15],17.4 µM
same,GI50,[16],13.5 µM
same,IC (TGI),[16],30.9 µM
same,GI50,[17],25.1 µM
same,IC (TGI),[17],64.6 µM
same,GI50,[18],282 nM
same,IC (TGI),[18],7.94 µM
same,GI50,[19],12.3 µM
same,IC (TGI),[19],30.9 µM
same,GI50,[20],288 nM
same,IC (TGI),[20],0.891 µM
same,GI50,[21],6.03 µM
same,IC (TGI),[21],18.6 µM
same,GI50,[22],13.2 µM
same,IC (TGI),[22],26.9 µM
same,GI50,[23],11.5 µM
same,IC (TGI),[23],28.8 µM
same,GI50,[24],13.5 µM
same,IC (TGI),[24],26.3 µM
same,GI50,[25],3.39 µM
same,IC (TGI),[25],13.8 µM
same,GI50,[26],2240 nM
same,IC (TGI),[26],16.2 µM
same,GI50,[27],10.2 µM
same,IC (TGI),[27],33.1 µM
same,GI50,[28],10.2 µM
same,IC (TGI),[28],21.9 µM
same,GI50,[29],3.24 µM
same,IC (TGI),[29],13.2 µM
same,GI50,[30],1410 nM
same,IC (TGI),[30],2.95 µM
O=Cc1ccc(-c2ccc(-c3ccc(C=O)s3)[se]2)s1 [NSC 675345],GI50,[2],> 100 µM
same,IC (TGI),[2],> 100 µM
same,GI50,[3],> 100 µM
same,IC (TGI),[3],> 100 µM
same,GI50,[4],4.37 µM
same,IC (TGI),[4],22.9 µM
same,GI50,[5],38.9 µM
same,IC (TGI),[5],> 100 µM
same,GI50,[6],2290 nM
same,IC (TGI),[6],21.4 µM
same,GI50,[7],4070 nM
same,IC (TGI),[7],> 100 µM
same,GI50,[8],> 100 µM
same,IC (TGI),[8],> 100 µM
same,GI50,[9],> 100 µM
same,IC (TGI),[9],> 100 µM
same,GI50,[10],> 100 µM
same,IC (TGI),[10],> 100 µM
same,GI50,[11],> 100000 nM
same,IC (TGI),[11],> 100 µM
same,GI50,[12],> 100000 nM
same,IC (TGI),[12],> 100 µM
same,GI50,[13],77.6 µM
same,IC (TGI),[13],> 100 µM
same,GI50,[14],52.5 µM
same,IC (TGI),[14],> 100 µM
same,GI50,[15],85.1 µM
same,IC (TGI),[15],> 100 µM
same,GI50,[31]; [33],> 100 µM
same,IC (TGI),[31]; [34],> 100 µM
same,GI50,[16],21.9 µM
same,IC (TGI),[16],> 100 µM
same,GI50,[17],> 100 µM
same,IC (TGI),[17],> 100 µM
same,GI50,[18],2190 nM
same,IC (TGI),[18],> 100 µM
same,GI50,[19],> 100 µM
same,IC (TGI),[19],> 100 µM
same,GI50,[20],> 100000 nM
same,IC (TGI),[20],> 100 µM
same,GI50,[21],11 µM
same,IC (TGI),[21],> 100 µM
same,GI50,[22],> 100 µM
same,IC (TGI),[22],> 100 µM
same,GI50,[23],> 100 µM
same,IC (TGI),[23],> 100 µM
same,GI50,[32]; [33],38 µM
same,IC (TGI),[32]; [34],> 100 µM
same,GI50,[24],> 100 µM
same,IC (TGI),[24],> 100 µM
same,GI50,[25],> 100 µM
same,IC (TGI),[25],> 100 µM
same,GI50,[26],813 nM
same,IC (TGI),[26],> 100 µM
same,GI50,[27],58.9 µM
same,IC (TGI),[27],> 100 µM
same,GI50,[28],77.6 µM
same,IC (TGI),[28],> 100 µM
same,GI50,[29],> 100 µM
same,IC (TGI),[29],> 100 µM
same,GI50,[30],479 nM
same,IC (TGI),[30],1.55 µM
